Test results from ChEMBL document CHEMBL1201862, “PubChem BioAssay data set” (2004).
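In this assay, cells in 96-well plates receive the compound at five concentrations for 48 hours. Endpoints are linearly interpolated between the surrounding concentrations. GI50 is the concentration that inhibits growth by half.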 Active and inactive are the calls of the source. No stated cut-off is given here; in the data, active = GI50 up to about 1.1 µM and inactive = higher.

Columns and labels:
Assay in all cases: growth of human tumour cells (NCI), 48 h
[1] = tested on: MDA-N
[2] = tested on: SR
[3] = tested on: PC-3
[4] = tested on: SF-295
[5] = tested on: ACHN
[6] = tested on: OVCAR-3
[7] = tested on: U-251
[8] = tested on: SK-MEL-28
[9] = tested on: HCT-15
[10] = tested on: NCI/ADR-RES
[11] = tested on: SN12C
[12] = tested on: OVCAR-4
[13] = tested on: SNB-19
[14] = tested on: KM12
[15] = tested on: NCI-H23
[16] = tested on: CAKI-1
[17] = tested on: IGROV-1
[18] = tested on: SK-MEL-2
[19] = tested on: DMS-273
[20] = tested on: XF498

SMILES	GI50 [1]	GI50 [2]	GI50 [3]	GI50 [4]	GI50 [5]	GI50 [6]	GI50 [7]	GI50 [8]	GI50 [9] [µM]	GI50 [10]	GI50 [11]	GI50 [12]	GI50 [13]	GI50 [14]	GI50 [15]	GI50 [16]	GI50 [17]	GI50 [18]	GI50 [19]	GI50 [20]
Cc1ccc(S(=O)(=O)N2CCCN(S(=O)(=O)c3ccc(C)cc3)CC2)cc1	> 100 µM (inactive)	> 100 µM (inactive)	> 100 µM (inactive)	> 100 µM (inactive)	> 100 µM (inactive)	> 100 µM (inactive)	> 100 µM (inactive)	> 100 µM (inactive)	> 100	> 100 µM (inactive)	> 100 µM (inactive)	> 100 µM (inactive)	> 100 µM (inactive)	> 100 µM (inactive)	> 100 µM (inactive)	–	–	–	–	–
COC(=O)C1C(C(=O)OC)N(Cc2ccccc2)C(=O)N1Cc1ccccc1 (centres undefined)	> 100 µM (inactive)	–	> 100 µM (inactive)	39.1 µM (inactive)	> 100 µM (inactive)	61.8 µM (inactive)	> 100 µM (inactive)	> 100 µM (inactive)	–	> 100 µM (inactive)	> 100 µM (inactive)	> 100 µM (inactive)	> 100 µM (inactive)	> 100 µM (inactive)	75.5 µM (inactive)	99.5 µM (inactive)	85.7 µM (inactive)	> 100 µM (inactive)	–	–
CC(=O)OC1(C#N)CC2OC1C1C2N=NN1C(=O)OC(C)(C)C (centres undefined)	–	32.8 µM (inactive)	–	–	> 100 µM (inactive)	47.6 µM (inactive)	–	28.8 µM (inactive)	21.4	–	35.6 µM (inactive)	65.6 µM (inactive)	–	–	29.6 µM (inactive)	> 100 µM (inactive)	35 µM (inactive)	23.4 µM (inactive)	29 µM (inactive)	–
CCC(C(=O)c1ccc(OC)c(OC)c1)N(C(=O)C(F)(F)F)C(C)c1ccccc1 (centres undefined)	> 100 µM (inactive)	> 100 µM (inactive)	> 100 µM (inactive)	> 100 µM (inactive)	> 100 µM (inactive)	> 100 µM (inactive)	> 100 µM (inactive)	> 100 µM (inactive)	> 100	> 100 µM (inactive)	–	–	> 100 µM (inactive)	–	–	> 100 µM (inactive)	> 100 µM (inactive)	–	–	–
Cc1nc2[nH]ncn2c(=O)c1CCCl	> 10 µM (inactive)	> 10 µM (inactive)	> 10 µM (inactive)	–	> 10 µM (inactive)	–	> 10 µM (inactive)	> 10 µM (inactive)	> 10	> 10 µM (inactive)	> 10 µM (inactive)	> 10 µM (inactive)	> 10 µM (inactive)	–	> 10 µM (inactive)	> 10 µM (inactive)	> 10 µM (inactive)	> 10 µM (inactive)	–	–
COc1ccc(C2COc3c(ccc(O)c3C)C2)cc1OC (centres undefined)	–	–	–	58.9 µM (inactive)	–	70.1 µM (inactive)	64.6 µM (inactive)	121 µM (inactive)	57.8	110 µM (inactive)	104 µM (inactive)	89.3 µM (inactive)	143 µM (inactive)	102 µM (inactive)	67.8 µM (inactive)	112 µM (inactive)	130 µM (inactive)	69.7 µM (inactive)	57.4 µM (inactive)	22.9 µM (inactive)
CC(C)(O)[C@H](CCO)O[Si](c1ccccc1)(c1ccccc1)C(C)(C)C	–	4.93 µM (inactive)	–	6.35 µM (inactive)	5.94 µM (inactive)	11.1 µM (inactive)	12.4 µM (inactive)	15.2 µM (inactive)	8.22	–	4.11 µM (inactive)	–	6.01 µM (inactive)	11.6 µM (inactive)	> 10 µM (inactive)	–	12.2 µM (inactive)	15.1 µM (inactive)	10.1 µM (inactive)	8.18 µM (inactive)
COc1ccc(/C(Cl)=C(\C=O)c2ccccc2)cc1OC	–	5.68 µM (inactive)	–	17.3 µM (inactive)	23.3 µM (inactive)	10.3 µM (inactive)	18 µM (inactive)	–	12.7	–	11 µM (inactive)	25 µM (inactive)	27.9 µM (inactive)	–	15.2 µM (inactive)	24.4 µM (inactive)	> 100 µM (inactive)	19.4 µM (inactive)	29.8 µM (inactive)	–
C=C1C(=O)O[C@@H]2OC3(C)CCC4C(C)CCC1C42OO3 (some centres undefined)	–	–	–	3.85 µM (inactive)	–	3.41 µM (inactive)	4.85 µM (inactive)	11.5 µM (inactive)	1.87	2.42 µM (inactive)	3.82 µM (inactive)	12.6 µM (inactive)	14.7 µM (inactive)	3.38 µM (inactive)	5.6 µM (inactive)	2.36 µM (inactive)	3.58 µM (inactive)	2.18 µM (inactive)	3.41 µM (inactive)	2.16 µM (inactive)
CC(=O)OCC1OC(NC(=O)N(CCCl)N=O)C(OC(C)=O)C(OC(C)=O)C1OC(C)=O (centres undefined)	–	–	–	97.1 µM (inactive)	–	> 100 µM (inactive)	98.4 µM (inactive)	> 100 µM (inactive)	> 100	> 100 µM (inactive)	> 100 µM (inactive)	> 100 µM (inactive)	> 65.8 µM (inactive)	> 100 µM (inactive)	> 100 µM (inactive)	> 86.7 µM (inactive)	> 100 µM (inactive)	> 100 µM (inactive)	> 100 µM (inactive)	75.9 µM (inactive)
COc1ccc(-c2oc3cc(OC(C)=O)cc(OC(C)=O)c3c(=O)c2OC)cc1	12.7 µM (inactive)	13.5 µM (inactive)	17.9 µM (inactive)	15.9 µM (inactive)	17 µM (inactive)	15 µM (inactive)	14.2 µM (inactive)	13.7 µM (inactive)	20.8	14.7 µM (inactive)	–	–	19 µM (inactive)	–	–	4.04 µM (inactive)	16.2 µM (inactive)	–	–	–
NC(CCCCCP(=O)(O)O)C(=O)O (centres undefined) [AP-7]	> 100 µM (inactive)	> 100 µM (inactive)	> 100 µM (inactive)	> 100 µM (inactive)	> 100 µM (inactive)	> 100 µM (inactive)	> 100 µM (inactive)	> 100 µM (inactive)	> 100	> 100 µM (inactive)	> 100 µM (inactive)	> 100 µM (inactive)	> 100 µM (inactive)	> 100 µM (inactive)	> 100 µM (inactive)	> 100 µM (inactive)	> 100 µM (inactive)	> 100 µM (inactive)	–	–
